Source: ChEMBL document CHEMBL4152353, “Synthesis of DNA interactive C3-trans-cinnamide linked β-carboline conjugates as potential cytotoxic and DNA topoisomerase I inhibitors” (Bioorg Med Chem, 2018)

Experiments:
A549 = assay: Cytotoxicity against human A549 cells after 48 hrs by MTT assay; format: functional, cell-based; details: A549, 48 h
MCF7 = assay: Cytotoxicity against human MCF7 cells after 48 hrs by MTT assay; format: functional, cell-based; details: MCF7, 48 h
B16 = assay: Cytotoxicity against mouse B16 cells after 48 hrs by MTT assay; format: functional, cell-based; details: B16, 48 h
HeLa = assay: Cytotoxicity against human HeLa cells after 48 hrs by MTT assay; format: functional, cell-based
NIH3T3 = assay: Cytotoxicity against mouse NIH/3T3 cells after 48 hrs by MTT assay; format: cell-based; details: NIH3T3, 48 h

Row | Structure (SMILES) | IC50 (A549) [nM] | IC50 (MCF7) [nM] | IC50 (B16) [nM] | IC50 (HeLa) [nM] | IC50 (NIH3T3) [nM]
1 | O=C(/C=C/c1cc(F)cc(F)c1)NCc1cc2c([nH]c3ccccc32)c(-c2cccc(F)c2)n1 | 21 | 16.5 | 18.2 | 23.6 | 36
2 | C/C=C/C(=O)NCc1cc2c([nH]c3ccccc32)c(-c2ccc(OC)cc2)n1 | 3360 | 10800 |  | 5410 | 2670
3 | O=C(/C=C/c1ccc(F)cc1)NCc1cc2c([nH]c3ccccc32)c(-c2cccc(F)c2)n1 | 16.3 | 16.5 | 16.8 | 24.3 | 30.8
4 | COc1cc(/C=C/C(=O)NCc2cc3c([nH]c4ccccc43)c(-c3cccc(F)c3)n2)cc(OC)c1OC | 17.9 | 16.2 | 19.8 | 23 | 36
5 | COc1cc(-c2nc(CNC(=O)/C=C/c3cccc(O)c3)cc3c2[nH]c2ccccc23)cc(OC)c1OC | 19.5 | 16.8 | 21.8 | 23.6 | 38.2
6 | COc1ccc(OC)c(/C=C/C(=O)NCc2cc3c([nH]c4ccccc43)c(-c3cccc(F)c3)n2)c1 | 22.2 | 17.5 | 19.9 | 21.9 | 39.6
7 | COc1cc(/C=C/C(=O)NCc2cc3c([nH]c4ccccc43)c(-c3cc(OC)c(OC)c(OC)c3)n2)ccc1O | 18.3 | 17.6 | 19 | 26 | 43.1
8 | COc1ccc(OC)c(/C=C/C(=O)NCc2cc3c([nH]c4ccccc43)c(-c3cc(OC)c(OC)c(OC)c3)n2)c1 | 18.8 | 17.2 | 19.2 | 25.1 | 39
9 | COc1ccc(-c2nc(CNC(=O)/C=C/c3cc(OC)c(OC)c(OC)c3)cc3c2[nH]c2ccccc23)cc1 | 19.7 | 13.9 | 17.4 | 22.9 | 39.3
10 | COc1cc(-c2nc(CNC(=O)/C=C/c3ccc(Cl)cc3)cc3c2[nH]c2ccccc23)cc(OC)c1OC | 18.9 | 17.5 | 18.7 | 26.8 | 35.6
11 | COc1ccc(-c2nc(CNC(=O)/C=C/c3cc(F)cc(F)c3)cc3c2[nH]c2ccccc23)cc1 | 20 | 17.2 | 23.9 | 24.6 | 37.5
12 | O=C(/C=C/c1cccc(O)c1)NCc1cc2c([nH]c3ccccc32)c(-c2cccc(F)c2)n1 | 23.4 | 19.2 | 24.9 | 27 | 35.7
13 | O=C(/C=C/c1ccc(Cl)cc1)NCc1cc2c([nH]c3ccccc32)c(-c2cccc(F)c2)n1 | 19.6 | 18.3 | 18.2 | 19.2 | 43.6
14 | COc1ccc(-c2nc(CNC(=O)/C=C/c3cc(OC)ccc3OC)cc3c2[nH]c2ccccc23)cc1 | 18.9 | 16.5 | 22.1 | 25.4 | 34.4
15 | O=C(/C=C/c1ccc(Cl)c(Cl)c1)NCc1cc2c([nH]c3ccccc32)c(-c2cccc(F)c2)n1 | 18 | 17 | 18.9 | 24.9 | 39
16 | COc1cc(-c2nc(CNC(=O)/C=C/c3ccc(F)cc3)cc3c2[nH]c2ccccc23)cc(OC)c1OC | 18.7 | 16.4 | 17.2 | 20 | 43
17 | COc1ccc(-c2nc(CNC(=O)CCCl)cc3c2[nH]c2ccccc23)cc1 | > 50000 | > 50000 |  | > 50000 | > 50000
18 | C=CCNC(=O)/C=C/c1cccc(O)c1 | > 50000 | > 50000 |  | > 50000 | > 50000
19 | COc1cccc2c1C(=O)c1c(O)c3c(c(O)c1C2=O)C[C@@](O)(C(=O)CO)C[C@@H]3O[C@H]1C[C@H](N)[C@H](O)[C@H](C)O1 [DOXORUBICIN] |  | 580 | 670 | 780 | 1720
